Assay results from ChEMBL document CHEMBL5725463, “Amino-dihydrothiazine and amino-dioxido dihydrothiazine compounds as beta-secretase antagonists and methods of use” (2017).

Assays:
Cathepsin D = Cathepsin D (Homo sapiens, UniProt P07339); test: In Vitro Enzymatic: Recombinant Cat D was expressed in CHO cells. The assay buffer for CathepsinD is 0.05 M citrate pH 3.5, 10% DMSO final, 5 mM CHAPS. The Cat D enzyme (9 nM) is pre-incubated for one hour with inhibitors, typically in about 1 uL of DMSO according to a serial dilution, is added thereto. The assays are effectively started by the addition of different FRET substrates (20 nM for Cat D) and the combination is incubated for one hour. The FRET assay is terminated with by addition of Tris buffer, which raises the pH to neutrality, and the fluorescence is determined. The FRET substrate is a peptide with commercially available fluorophore and quencher, on opposite sides of the BACE cleavage site. The Cat D substrate peptide sequence is based on sequence #1 of Table 1 from Gulnik et al. FEBS Letters v413 p 379-384 1997. Proteolytic cleavage of the FRET substrate releases quenching of fluorescence (Cat D excitation 500 nm and emission 580 nm).Alternatively, a Cat D assay may also be run according to the procedure described in the article, Characterization of new fluorgenic substrates for the rapid and sensitive assay of cathepsin E and cathepsin D, J. Biochem., 125:1137, 1999.; format: cell-based
Beta-secretase 1 = Beta-secretase 1 (Homo sapiens, UniProt P56817); test: In Vivo Inhibition of Beta-Secretase: Several animal models, including mouse, rat, dog, and monkey, may be used to screen for inhibition of beta-secretase activity in vivo following administration of a test compound sample. Animals used in this invention can be wild type, transgenic, or gene knockout animals. For example, the Tg2576 mouse model, prepared and conducted as described in Hsiao et al., 1996, Science 274, 99-102, and other non-transgenic or gene knockout animals are useful to analyze in vivo inhibition of Amyloid beta peptide (Abeta) production in the presence of inhibitory test compounds. Generally, 2 to 18 month old Tg2576 mice, gene knockout mice or non-transgenic animals are administered test compounds formulated in vehicles, such as cyclodextran, phosphate buffers, hydroxypropyl methylcellulose or other suitable vehicles. […]; format: organism-based
Beta-secretase 1, sequence (P56817 whole entry): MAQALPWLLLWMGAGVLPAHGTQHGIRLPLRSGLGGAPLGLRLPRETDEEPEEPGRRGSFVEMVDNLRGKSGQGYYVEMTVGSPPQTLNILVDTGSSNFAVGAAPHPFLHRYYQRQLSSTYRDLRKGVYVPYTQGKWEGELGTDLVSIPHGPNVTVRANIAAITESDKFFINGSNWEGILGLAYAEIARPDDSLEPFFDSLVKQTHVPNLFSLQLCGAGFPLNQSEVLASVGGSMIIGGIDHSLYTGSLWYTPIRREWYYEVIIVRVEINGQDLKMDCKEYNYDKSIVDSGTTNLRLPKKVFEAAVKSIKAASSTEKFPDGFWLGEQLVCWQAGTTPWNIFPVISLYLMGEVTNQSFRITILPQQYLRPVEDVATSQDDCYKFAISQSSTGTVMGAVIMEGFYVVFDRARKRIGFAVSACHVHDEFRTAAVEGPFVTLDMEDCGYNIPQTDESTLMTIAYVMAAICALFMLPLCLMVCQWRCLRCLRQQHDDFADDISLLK

Cathepsin D, sequence (P07339 65-162 limits assumed): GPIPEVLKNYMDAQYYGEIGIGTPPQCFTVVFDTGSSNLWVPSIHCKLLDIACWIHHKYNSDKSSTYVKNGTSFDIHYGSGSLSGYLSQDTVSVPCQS
Cathepsin D, sequence (P07339 169-412 limits assumed): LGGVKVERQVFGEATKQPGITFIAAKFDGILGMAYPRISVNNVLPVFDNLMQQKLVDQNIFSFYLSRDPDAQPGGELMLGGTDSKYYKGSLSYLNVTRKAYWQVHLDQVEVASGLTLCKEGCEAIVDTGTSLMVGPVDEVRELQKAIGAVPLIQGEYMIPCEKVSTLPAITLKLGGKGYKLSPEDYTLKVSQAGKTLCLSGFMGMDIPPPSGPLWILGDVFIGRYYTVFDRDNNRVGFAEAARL

SMILES	IC50 (Cathepsin D) [µM]	IC50 (Beta-secretase 1) [µM]
Cc1cc(C#N)cnc1C(=O)Nc1ccc(F)c([C@]2(C)CS(=O)(=O)C3(CCC3)C(N)=N2)c1	134	0.00076
Cc1cc(Cl)cnc1C(=O)Nc1ccc(F)c([C@]2(C)CS(=O)(=O)C3(CCC3)C(N)=N2)c1	84.7	0.0016
